How the values were obtained:
Assay in all cases: relative viability (nuclei count vs DMSO), 5 days (fraction); higher = more cells survive
Carfilzomib + Bortezomib = compound: CC(C)C[C@H](NC(=O)[C@H](CCc1ccccc1)NC(=O)CN1CCOCC1)C(=O)N[C@@H](Cc1ccccc1)C(=O)N[C@@H](CC(C)C)C(=O)[C@@]1(C)CO1 [Carfilzomib] + CC(C)C[C@H](NC(=O)[C@H](Cc1ccccc1)NC(=O)c1cnccn1)B(O)O [Bortezomib] (partner 0.002 µM)
Outline: (§1)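 A single step with final 0.05% Triton X-100, 1% formaldehyde and 1 ug/ml Hoechst fixed the cells and stained nuclei 5 days after treatment. Lung cancer cell lines in 1536-well plates had been treated by pin tool the day after seeding with one drug alone or a fixed anchor-drug dose plus five library-drug doses (not always all listed) in √10 steps, and nuclei were counted on 4× images. Relative viability is the ratio of nuclei in treated wells to nuclei in vehicle wells, taken as the median of duplicate plates.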

[1] = compound: CC(C)C[C@H](NC(=O)[C@H](CCc1ccccc1)NC(=O)CN1CCOCC1)C(=O)N[C@@H](Cc1ccccc1)C(=O)N[C@@H](CC(C)C)C(=O)[C@@]1(C)CO1 [Carfilzomib] + CC(=O)c1c(C)c2cnc(Nc3ccc(N4CCNCC4)cn3)nc2n(C2CCCC2)c1=O [Palbociclib] (partner 0.5 µM)
Outline: as §1

Carfilzomib + Decitabine = compound: CC(C)C[C@H](NC(=O)[C@H](CCc1ccccc1)NC(=O)CN1CCOCC1)C(=O)N[C@@H](Cc1ccccc1)C(=O)N[C@@H](CC(C)C)C(=O)[C@@]1(C)CO1 [Carfilzomib] + Nc1ncn([C@H]2C[C@H](O)[C@@H](CO)O2)c(=O)n1 [Decitabine] (partner 2 µM)
Outline: as §1

Carfilzomib + AZD7762 = compound: CC(C)C[C@H](NC(=O)[C@H](CCc1ccccc1)NC(=O)CN1CCOCC1)C(=O)N[C@@H](Cc1ccccc1)C(=O)N[C@@H](CC(C)C)C(=O)[C@@]1(C)CO1 [Carfilzomib] + NC(=O)Nc1cc(-c2cccc(F)c2)sc1C(=O)N[C@H]1CCCNC1 [AZD7762] (partner 0.2 µM)
Outline: as §1

| Cell Line | relative viability (Carfilzomib + Bortezomib; first compound 0.001 µM) | relative viability (Carfilzomib + Bortezomib; first compound 0.003162 µM) | relative viability (Carfilzomib + Bortezomib; first compound 0.01 µM) | relative viability (Carfilzomib + Bortezomib; first compound 0.03162 µM) | relative viability (Carfilzomib + Bortezomib; first compound 0.1 µM) | relative viability ([1]; first compound 0.001 µM) | relative viability ([1]; first compound 0.003162 µM) | relative viability ([1]; first compound 0.01 µM) | relative viability ([1]; first compound 0.03162 µM) | relative viability ([1]; first compound 0.1 µM) | relative viability (Carfilzomib + Decitabine; first compound 0.001 µM) | relative viability (Carfilzomib + Decitabine; first compound 0.003162 µM) | relative viability (Carfilzomib + Decitabine; first compound 0.01 µM) | relative viability (Carfilzomib + Decitabine; first compound 0.03162 µM) | relative viability (Carfilzomib + Decitabine; first compound 0.1 µM) | relative viability (Carfilzomib + AZD7762; first compound 0.001 µM) | relative viability (Carfilzomib + AZD7762; first compound 0.003162 µM) | relative viability (Carfilzomib + AZD7762; first compound 0.01 µM) | relative viability (Carfilzomib + AZD7762; first compound 0.03162 µM) | relative viability (Carfilzomib + AZD7762; first compound 0.1 µM) |
| --- | --- | --- | --- | --- | --- | --- | --- | --- | --- | --- | --- | --- | --- | --- | --- | --- | --- | --- | --- | --- |
| IA-LM | 0.843 | 0.673 | 0.584 | 0.0124 | 0.0142 |  |  |  |  |  |  |  |  |  |  |  |  |  |  |  |
| LK-2 |  |  |  |  |  | 0.661 | 0.659 | 0.846 | 0.116 | 0.106 | 0.276 | 0.369 | 0.193 | 0.119 | 0.108 | 0.369 | 0.519 | 0.399 | 0.0916 | 0.0762 |
| NCI-H358 |  |  |  |  |  | 0.139 | 0.117 | 0.114 | 0.0724 | 0.0923 | 0.208 | 0.24 | 0.181 | 0.0811 | 0.0784 | 0.449 | 0.615 | 0.63 | 0.255 | 0.226 |
| NCI-H520 | 0.45 | 0.179 | 0.142 | 0.129 | 0.132 | 0.187 | 0.217 | 0.162 | 0.133 | 0.144 | 0.494 | 0.5 | 0.398 | 0.16 | 0.173 |  |  |  |  |  |
| NCI-H522 |  |  |  |  |  | 0.873 | 0.977 | 0.848 | 1.08 | 0.274 | 0.582 | 0.631 | 0.615 | 0.584 | 0.353 | 0.782 | 0.901 | 0.925 | 0.428 | 0.337 |
| NCI-H596 | 0.885 | 0.987 | 0.839 | 0.483 | 0.2 |  |  |  |  |  | 0.904 | 0.999 | 1.03 | 1.16 | 0.308 | 1.05 | 1.22 | 1.09 | 0.66 | 0.211 |
| NCI-H661 | 0.801 | 0.965 | 0.842 | 0.384 | 0.214 | 0.423 | 0.414 | 0.472 | 0.398 | 0.318 | 0.583 | 0.585 | 0.568 | 0.598 | 0.394 |  |  |  |  |  |
| NCI-H1299 | 0.997 | 1.09 | 1.02 | 0.986 | 0.156 |  |  |  |  |  |  |  |  |  |  |  |  |  |  |  |
| NCI-H1395 |  |  |  |  |  |  | 0.676 | 0.635 | 0.497 | 0.31 |  | 0.756 | 0.602 | 0.441 | 0.319 |  | 0.451 | 0.399 | 0.346 | 0.327 |
| NCI-H1563 | 0.815 | 0.985 | 0.836 | 0.513 | 0.477 |  |  |  |  |  |  |  |  |  |  |  |  |  |  |  |
| NCI-H1648 |  |  |  |  |  | 0.236 | 0.23 | 0.227 | 0.288 | 0.255 | 0.447 | 0.495 | 0.474 | 0.404 | 0.255 | 0.657 | 0.621 | 0.603 | 0.407 | 0.268 |
| NCI-H1650 |  | 0.19 | 0.17 | 0.195 | 0.197 | 0.306 | 0.371 | 0.209 | 0.11 | 0.188 | 0.42 | 0.522 | 0.359 | 0.148 | 0.177 |  |  |  |  |  |
| NCI-H1703 | 0.216 | 0.167 | 0.156 | 0.0967 | 0.129 |  |  |  |  |  |  |  |  |  |  | 0.121 | 0.168 | 0.128 | 0.107 | 0.0623 |
| NCI-H1944 |  |  |  |  |  | 0.318 | 0.361 | 0.372 | 0.318 | 0.152 | 0.405 | 0.447 | 0.449 | 0.453 | 0.234 | 0.538 | 0.568 | 0.587 | 0.448 | 0.317 |
| NCI-H2009 | 1.11 | 1.26 | 0.78 | 0.122 | 0.0487 | 0.186 | 0.275 | 0.201 | 0.0584 | 0.0475 | 0.401 | 0.391 | 0.401 | 0.268 | 0.0605 |  |  |  |  |  |
| NCI-H2023 | 0.951 | 1.07 | 1.01 | 0.184 | 0.0639 | 0.341 | 0.344 | 0.405 | 0.235 | 0.0653 | 0.184 | 0.23 | 0.173 | 0.203 | 0.0666 |  |  |  |  |  |
| NCI-H2170 |  |  |  |  |  | 0.38 | 0.437 | 0.456 | 0.339 | 0.127 | 0.451 | 0.474 | 0.448 | 0.477 | 0.22 | 0.846 | 0.963 | 1.02 | 0.734 | 0.238 |
| NCI-H2228 | 0.94 | 0.54 | 0.257 | 0.0941 | 0.156 | 0.466 | 0.886 | 0.557 | 0.104 | 0.105 |  |  |  |  |  |  |  |  |  |  |
| NCI-H2342 |  |  |  |  |  | 0.488 | 0.57 | 0.58 | 0.576 | 0.44 | 0.711 | 0.78 | 0.782 | 0.887 | 0.585 | 0.462 | 0.513 | 0.689 | 0.609 | 0.347 |
| SK-LU-1 | 0.878 | 1.19 | 0.797 | 0.195 | 0.237 | 0.331 | 0.442 | 0.336 | 0.266 | 0.171 | 0.591 | 0.713 | 0.625 | 0.262 | 0.23 |  |  |  |  |  |
| SK-MES-1 |  |  |  |  |  | 0.387 | 0.344 | 0.34 | 0.282 | 0.183 | 0.385 | 0.375 | 0.437 | 0.356 | 0.181 |  |  |  |  |  |
| SW 900 |  |  |  |  |  |  | 0.51 | 0.288 | 0.19 | 0.186 |  | 0.5 | 0.344 | 0.197 | 0.22 |  | 0.67 | 0.226 | 0.168 | 0.206 |
| SW 1573 | 0.986 | 0.959 | 0.546 | 0.114 | 0.0592 | 0.396 | 0.5 | 0.235 | 0.0595 | 0.0481 | 0.551 | 0.52 | 0.297 | 0.0743 | 0.0554 |  |  |  |  |  |
| UMC-11 | 0.66 | 0.887 | 0.701 | 0.533 | 0.179 | 0.378 | 0.325 | 0.343 | 0.343 | 0.277 | 0.603 | 0.609 | 0.54 | 0.819 | 0.459 |  |  |  |  |  |
